Test results reported in ChEMBL document CHEMBL1131363, “Isoindolinone enantiomers having affinity for the dopamine D4 receptor” (Bioorg Med Chem Lett, 1998).

Assays:
D(4) dopamine receptor = target: T1, D(4) dopamine receptor (Homo sapiens, UniProt P21917); experiment: In vitro binding affinity at human dopamine D4 receptor expressed in CHO cells by [3H]spiperone displacement.; assay type: cell-based
T1 sequence (P21917 whole entry): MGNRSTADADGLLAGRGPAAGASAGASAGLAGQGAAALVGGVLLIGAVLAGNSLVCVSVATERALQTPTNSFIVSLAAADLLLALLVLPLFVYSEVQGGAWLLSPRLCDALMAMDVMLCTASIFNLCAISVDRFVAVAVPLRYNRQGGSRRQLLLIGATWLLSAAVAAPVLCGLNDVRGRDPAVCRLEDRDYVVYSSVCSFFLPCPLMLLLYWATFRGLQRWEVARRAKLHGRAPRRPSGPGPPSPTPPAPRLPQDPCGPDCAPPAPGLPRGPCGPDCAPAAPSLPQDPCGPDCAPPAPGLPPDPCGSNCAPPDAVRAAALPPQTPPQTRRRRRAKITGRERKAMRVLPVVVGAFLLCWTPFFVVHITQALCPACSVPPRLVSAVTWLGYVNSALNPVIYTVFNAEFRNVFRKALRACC

[1] = target: 5-hydroxytryptamine receptor 2A (Bos taurus, UniProt Q75Z89); experiment: In vivo binding affinity was evaluated against 5-hydroxytryptamine 2 receptor; assay type: organism-based
[2] = target: T2, 5-hydroxytryptamine receptor 1A (Mus musculus, UniProt Q64264); experiment: In vivo binding affinity was evaluated against 5-hydroxytryptamine 1A receptor; assay type: organism-based
T2 sequence (Q64264 whole entry): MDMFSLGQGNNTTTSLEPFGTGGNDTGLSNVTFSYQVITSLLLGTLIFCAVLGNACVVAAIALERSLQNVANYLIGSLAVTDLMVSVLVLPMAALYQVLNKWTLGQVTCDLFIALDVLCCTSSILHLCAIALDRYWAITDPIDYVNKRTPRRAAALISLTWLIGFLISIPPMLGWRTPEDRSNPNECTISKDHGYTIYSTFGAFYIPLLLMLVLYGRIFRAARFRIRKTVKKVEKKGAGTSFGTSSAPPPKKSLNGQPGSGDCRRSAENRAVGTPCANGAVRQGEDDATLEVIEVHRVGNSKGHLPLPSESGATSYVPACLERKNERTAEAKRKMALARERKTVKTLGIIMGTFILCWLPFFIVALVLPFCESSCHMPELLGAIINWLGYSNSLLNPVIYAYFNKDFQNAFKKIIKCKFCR

Rattus norvegicus = experiment: Reversal of amphetamine (at 0.5 mg/kg given intra peritoneal) stimulated locomotor activity at 3 mg/kg in rat.; assay type: functional
D(3) dopamine receptor = D(3) dopamine receptor (Homo sapiens, UniProt P35462); experiment: Displacement of [3H]spiperone from human Dopamine receptor D3 expressed in CHO cells; assay type: cell-based
D(2) dopamine receptor = D(2) dopamine receptor (Homo sapiens, UniProt P14416); experiment: Displacement of [3H]spiperone from human Dopamine receptor D2 expressed in CHO cells; assay type: cell-based
D(2) dopamine receptor, sequence (P14416 whole entry): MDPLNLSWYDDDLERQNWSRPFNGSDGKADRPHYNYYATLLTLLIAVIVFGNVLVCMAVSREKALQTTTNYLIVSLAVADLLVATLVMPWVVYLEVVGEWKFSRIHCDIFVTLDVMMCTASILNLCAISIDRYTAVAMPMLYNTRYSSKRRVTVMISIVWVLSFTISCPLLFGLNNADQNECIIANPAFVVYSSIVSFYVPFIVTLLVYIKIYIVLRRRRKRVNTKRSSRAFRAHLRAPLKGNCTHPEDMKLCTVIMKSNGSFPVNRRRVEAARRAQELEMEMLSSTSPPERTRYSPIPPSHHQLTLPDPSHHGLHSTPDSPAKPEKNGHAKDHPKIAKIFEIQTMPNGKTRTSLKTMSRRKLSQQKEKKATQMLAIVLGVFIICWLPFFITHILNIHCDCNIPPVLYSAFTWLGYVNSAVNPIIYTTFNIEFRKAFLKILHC

D(3) dopamine receptor, sequence (P35462 whole entry): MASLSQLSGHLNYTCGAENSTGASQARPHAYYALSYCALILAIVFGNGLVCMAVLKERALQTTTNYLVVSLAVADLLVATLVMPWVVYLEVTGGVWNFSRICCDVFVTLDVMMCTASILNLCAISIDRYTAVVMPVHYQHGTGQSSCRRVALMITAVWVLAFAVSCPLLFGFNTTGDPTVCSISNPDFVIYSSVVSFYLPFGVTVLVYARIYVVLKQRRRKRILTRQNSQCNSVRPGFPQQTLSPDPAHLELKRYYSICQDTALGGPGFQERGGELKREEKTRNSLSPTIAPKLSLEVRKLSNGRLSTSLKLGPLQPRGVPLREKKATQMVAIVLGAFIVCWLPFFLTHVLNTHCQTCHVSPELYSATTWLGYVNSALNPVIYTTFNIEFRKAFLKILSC
5-hydroxytryptamine receptor 2A, sequence (Q75Z89 whole entry): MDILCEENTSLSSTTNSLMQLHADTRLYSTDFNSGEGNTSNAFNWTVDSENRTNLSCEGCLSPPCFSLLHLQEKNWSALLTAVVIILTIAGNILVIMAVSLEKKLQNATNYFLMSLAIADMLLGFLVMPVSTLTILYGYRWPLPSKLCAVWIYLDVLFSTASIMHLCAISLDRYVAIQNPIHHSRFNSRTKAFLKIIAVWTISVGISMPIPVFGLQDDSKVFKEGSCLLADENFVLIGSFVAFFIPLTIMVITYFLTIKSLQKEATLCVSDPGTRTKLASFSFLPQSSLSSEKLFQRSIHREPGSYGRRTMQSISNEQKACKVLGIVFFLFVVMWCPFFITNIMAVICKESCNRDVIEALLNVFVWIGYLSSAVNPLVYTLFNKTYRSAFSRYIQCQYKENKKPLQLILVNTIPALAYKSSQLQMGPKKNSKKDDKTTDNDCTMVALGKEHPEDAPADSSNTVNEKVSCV

| Compound | Ki (D(4) dopamine receptor) | Ki (D(3) dopamine receptor) | Ki (D(2) dopamine receptor) | other results |
| --- | --- | --- | --- | --- |
| O=C(CCN1CCN(c2ccc(CO)c(Cl)c2)CC1)c1ccc(Cl)cc1 | 60 nM | – | – | – |
| OCc1ccc(N2CCN(CC[C@H](O)c3ccc(Cl)cc3)CC2)cc1Cl | 8.6 nM | – | – | – |
| Cc1ccc(N2CCN(CC[C@@H]3NC(=O)c4ccccc43)CC2)cc1C | – | – | – | Ki [1]: 14.6 nM; Ki [2]: 991 nM; Activity (Rattus norvegicus): 70% |
| Cc1ccnc(N2CCN(CCC3NC(=O)c4ccccc43)CC2)c1 (configuration not stated) | 22.6 nM | > 3000 nM | > 5000 nM | – |
| OCc1ccc(N2CCN(CCC(O)c3ccc(Cl)cc3)CC2)cc1Cl (configuration not stated) | 11 nM | – | – | – |
| OCc1ccc(N2CCN(CC[C@@H](O)c3ccc(Cl)cc3)CC2)cc1Cl | 81.4 nM | – | – | – |
| Cc1ccc(C2CCN(CCC3NC(=O)c4ccccc43)CC2)cc1C (configuration not stated) | – | > 3000 nM | – | – |
| Cc1ccc(N2CCN(CC[C@H]3NC(=O)c4ccccc43)CC2)cc1C | – | – | – | Ki [1]: 36.4 nM; Ki [2]: 525 nM; Activity (Rattus norvegicus): 8% |
| Cc1nc(N2CCN(CCC3NC(=O)c4ccccc43)CC2)sc1C (configuration not stated) | – | > 3000 nM | > 5000 nM | – |
| COc1ccc(N2CCN(CCC3NC(=O)c4ccccc43)CC2)cc1 (configuration not stated) | 37.3 nM | > 3000 nM | > 5000 nM | – |
| COc1ccc(N2CCN(CCC3c4ccccc4C(=O)N3C)CC2)cc1 (configuration not stated) | 333 nM | > 3000 nM | > 5000 nM | – |
| Cc1ccc(N2CCN(CCC3c4ccccc4C(=O)N3C)CC2)cc1C (configuration not stated) | 35.1 nM | > 3000 nM | > 5000 nM | – |
| O=C1NC(CCN2CCN(c3ccccc3)CC2)c2ccccc21 (configuration not stated) | – | 2680 nM | – | – |
| Cc1ccc(N2CCN(CCC3NC(=O)c4ccccc43)CC2)cc1C (configuration not stated) | – | 2680 nM | – | – |
| Cc1ccc(N2CCN(CCC3NC(=O)c4ccccc43)CC2)cc1 (configuration not stated) | – | > 3000 nM | > 5000 nM | – |
| CN1C(=O)c2ccccc2C1CCN1CCN(c2ccc(Cl)cc2)CC1 (configuration not stated) | 78.6 nM | > 3000 nM | > 5000 nM | – |
| O=C1NC(CCN2CCN(c3ccc(Cl)cc3)CC2)c2ccccc21 (configuration not stated) | – | > 3000 nM | > 5000 nM | – |
| O=C1NC(CCN2CCN(c3ccc4ccccc4c3)CC2)c2ccccc21 (configuration not stated) | 10 nM | > 3000 nM | > 5000 nM | – |
